Tests used:
in vivo = details: mouse, mice of both sexes, oral, day 14 of observation
Protocol: The acute toxicity was determined on mice of both sexes upon oral administration of the compounds to be tested as a suspension in carboxymethylcellulose containing 0.5% of physiologic solution, and it was expressed as an LD50 value at day 14 of observation.

[1] = system: spontaneous hypertensive rats (systolic pressure of the caudal artery); test: Antihypertensive activity per os in spontaneous hypertensive rats; assay type: in vivo, rat; details: 3 mg/kg p.o., percentage of the decrease of the systolic pressure
Protocol: The antihypertensive activity was determined by administering spontaneous hypertensive rats with the compounds of the invention, by oral route, as a suspension in carboxymethylcellulose containing 0.5% of physiologic solution. […] The obtained results are reported in Table 2, and are expressed as the percentage of the decrease of the sistolic pressure after treatment.

SMILES | LD50 at 336 h (in vivo) | Pressure variations (pressure time 0 - less pressure after administration), 15 min. [1] | Pressure variations (pressure time 0 - less pressure after administration), 1 h [1] | Pressure variations (pressure time 0 - less pressure after administration), 3 h [1] | Pressure variations (pressure time 0 - less pressure after administration), 5 h [1]
CCOC(=O)C1=C(C)NC(C)=C(C(=O)OCCN2CCc3ccccc3C2)C1c1cccc([N+](=O)[O-])c1 (stereo not drawn) [I, R = C2 H5] | 1000 mg/kg | 43 ± 10.2% | 31 ± 7.1% | 22 ± 9.4% | 11 ± 6.9%
COC(=O)C1=C(C)NC(C)=C(C(=O)OCCN2CCc3ccccc3C2)C1c1cccc([N+](=O)[O-])c1.Cl (stereo not drawn) [I, R = CH3, 2-(1,2,3,4-Tetrahydro-isoquinoline-2-yl)ethyl 1,4-dihydro-2,6-dimethyl-4-(3-nitrophenyl)-5-methoxycarbonyl-pyridine-3-carboxylate, mono-hydrochloride] | 1000 mg/kg | 54 ± 6.4% | 86 ± 7.3% | 73 ± 12.8% | 49 ± 8.7%
CC1=C(C(=O)OCCN2CCc3ccccc3C2)C(c2cccc([N+](=O)[O-])c2)C(C(=O)OC(C)C)=C(C)N1 (stereo not drawn) [I, R = CH(CH3)2] | 1000 mg/kg | 39 ± 7.6% | 38 ± 6.9% | 18 ± 6.1% | 2 ± 3.1%
COC(=O)C1=C(C)NC(C)=C(C(=O)OCCN(C)Cc2ccccc2)C1c1cccc([N+](=O)[O-])c1 (stereo not drawn) [Nicardipine, reference compound] | 350 mg/kg | 49 ± 11.3% | 52 ± 9.7% | 36 ± 6.2% | 21 ± 5.8%
COC(=O)C1=C(C)NC(C)=C(C(=O)OC)C1c1ccccc1[N+](=O)[O-] [Nifedipine, reference compound] | – | 41 ± 5.4% | 23 ± 6.1% | 12 ± 4.3% | 9 ± 5.6%
